# Patent US7332495B2 (priority 2002, dated 2008)
# Like-named read-outs stand apart in the source and are kept apart here. Marks after values point to notes of the source that are not given here.
# Columns and labels:
# [1] = test system: rats; experiment: Spontaneous withdrawal tests (body weight); assay type: in vivo; details: Morphine group
# Protocol: 96 mice were divided into 4 groups (24 for each group, ? fifty-fifty), and Morphine, IV-12-1, IV-12-2, warm boiled water were administered respectively, using progressive dose increase for 7 days (i.g.) and 2 times per day. The weight of the rats after drug withdrawal was compared with the weight one day before drug withdrawal at a corresponding time (See Table 9 and 10).
# [2] = test system: Kunming mice; experiment: Mice writhing model (acetic acid); assay type: in vivo; details: for ED50 / inhibition in vivo at 20 mg/kg: Mus musculus; for ED50: po, Mice, Acetic acid Writhing, read-out: Analgesia ED50; for inhibition in vivo at 20 mg/kg: ip, i.p. 20 mg/Kg, acetic acid 0.7% i.p. after 30 minutes, writhes in 5 minutes, read-out: Analgesia (inhibition ratio of writhing)
# Protocol: (§1) Kunming mice were used, with a male-female ratio of 50-50%. The test compound is administered i.p. (20 mg/Kg body weight) to the test groups, and physiological saline is administered P.O. (20 ml/Kg body weight) to the control group. After 30 minutes, acetic acid (0.7%, […] i.p.) was injected and the number of writhes was observed during a 5-minute period after acetic acid administration. The inhibition ratio of the writhing threshold was calculated. The alternating current tube is used to record the spontaneous activities for measuring sedation.
# (§2) Two species of animals (mice and rats) and four types of pain testing models (i.p. 0.7% acetic acid, s.c. 5% formalin, hot plate 55° C., focused radiant heat) were used.
# [3] = test system: rat; experiment: animal or person; details: for ED50 / responders at 20 mg/kg: Rattus norvegicus; for ED50: po, read-out: Analgesia ED50; for responders at 20 mg/kg: ip
# Protocol: Using 55° C. hot plate pain threshold detector (available from Ninghai Baishi Electronic Medical Instrument Co., Zheijiang, China) the threshold change before and after administration of a pharmaceutical composition of the present invention is tested. […] hind paw was scrubbed with alcohol cotton ball before the experiment. The regular pain threshold was tested twice for each rat, the induced hind paw licking time being recorded as the pain threshold. Measurements were made at 20-30 minute intervals. Only rats with stable pain reaction were used in the pharmaceutical test.
# as §2
# [4] = test system: Mice; experiment: Jumping test in mice (Narcan precipitated); assay type: in vivo; details: Morphine group
# Protocol: Sixty-four mice were divided into 4 groups (16 for each group, ? fifty-fifty) Morphine, IV-12-1 (75 mg/Kg) IV-12-2 (100 mg/Kg) and saline were administrated respectively 3 times per day for 7 days with progressive dose increase. On the 7th day, Narcan is injected (i.p. 2 mg/kg) to precipitate withdrawal. The number of times for the mice to jump was recorded and the incidence of the jump calculated.
# [5] = test system: rats; experiment: Conditional position preference in rats; details: Morphine group, i.g.
# From the text: A commercially available device for testing (Med Associates Inc.) was used. Measurements were automatically recorded by a computer.
# The data are indicated by means of […], t-test was employed to compare the data in different groups. The rats were divided randomly into groups by weight, 12 for each group. They were positive control groups. […] The experiments were divided into stages of accommodation, training and test. Accommodation: Open the doors between black box and grey box and the door between white box and grey box. put the rats in from the grey box; let them run free in the training box for 15 minutes for 4 days. Training: The white box is with medicine while the black one is without it. The period training is 10 days, the first day with the medicine while the second day not; the third day with the medicine while the fourth day not, so on and so forth. When carrying out the training with medicine, 15 minutes after the rat is administrated (i.g.) with medicine, it is put into the white box for 30 minutes. When the training is without medicine, 15 minutes after the rat is administrated (i.g.) with saline, it is put into the black box for 30 minutes. Test: On the 11th day, the rat is put into the training box, with the door open. The time the rat stays in each box, and the number of time it enters during 15 minutes were determined, and the percentage of the time staying in the white box to the time together in white box and black box is calculated (Table 12).
# [6] = test system: rat; experiment: Rat tail flick model (focused radiant heat); assay type: in vivo; details: po, read-out: Analgesia ED50
# [7] = test system: Mice; experiment: Mice 55° C. hot plate; assay type: in vivo; details: Mus musculus, po, read-out: Analgesia ED50
# Protocol: as §2
# [8] = test system: rats; experiment: Precipitated withdrawal test in rats; assay type: in vivo; details: Morphine group
# Protocol: 48 rats were divided into 4 groups (12 for each group, ? fifty-fifty). Morphines IV-12-1 (75 mg/Kg), IV-12-2 (100 mg/Kg) and saline, was administered respectively using progressive dose increase for 14 days and 3 times per day. On the 15th day, Narcan is injected (i.p. 4 mg/kg) to precipitate withdrawal. The withdrawal syndrome was observed and the rats wre weighed at 30, 60 and 120 minutes after the injection respectively.
# [9] = test system: rats; experiment: Spontaneous withdrawal tests (body weight); assay type: in vivo; details: Morphine group; remark: listed apart in the source
# [10] = test system: rat; experiment: Rat 5% formalin paw s.c.; assay type: in vivo; details: p.o., read-out: Analgesia ED50
# Protocol: as §2
# [11] = test system: Kunming mice; experiment: Sedation: spontaneous activities recorded with alternating current tube; assay type: in vivo; details: for inhibition in vivo at 20 mg/kg: Mus musculus, ip, i.p. 20 mg/Kg, spontaneous activities
# Protocol: as §1, with “The test compound is administered i.p. (20 mg/Kg body weight) to the test groups, and physiological saline is administered P.O. (20 ml/Kg body weight) to the control group.” left out
# [12] = Summary of all three algogenic models; assay type: in vivo; details: in words
# From the text: All the compounds mentioned above have profound for further value development.
# [13] = test system: rat; experiment: Rat tail flick model (focused radiant heat); assay type: in vivo; details: for change in vivo at 20 mg/kg: Rattus norvegicus, po, read-out: increase (%) of tail flick time; for change in vivo at 20 mg/kg / After (s) tail flick time: orally 20 mg/kg; for After (s) tail flick time: 30-45 minutes after administration
# Protocol: A 8.75 mm-projecting lamp (12 v, 50 w) was used to give out focused radiant heat. The terminal 3 cm of the tail is exposed to the heat. The intensity of the focused radiant heat is regulated by a transformer to ensure that the time required to elicit a tail flick response is within 3-5 seconds. The rat's pain threshold is pre-tested for 2-3 times; and only animals with stable reactions were used in the pharmaceutical test. The test substance is taken orally 20 mg/kg. The number of rats whose increase in time for eliciting a tail flick response is by 100% or more at the peak of the drug action (30-45 minutes after administration) is used to calculate analgesic effect.
# as §2
# [14] = read-out: Analgesic ratio (Increase by 100%)
# [15] = read-out: Analgesic ratio (More than 60 seconds)
structure (smiles),measurement,setting,value
"CN1CC[C@]23c4c5ccc(O)c4O[C@H]2[C@@H](O)C=C[C@H]3[C@H]1C5 [Morphine, reference compound]",Increase (%) of weight,[1]; 114 h after withdrawal,−4.7%
same,Weight,[1]; 144 h after withdrawal,282.0 ± 41 g
same,Weight after withdrawal compared with weight one day before withdrawal,"[1]; ♀, 114 h after withdrawal",0.97 ± 0.03
same,Weight after withdrawal compared with weight one day before withdrawal,"[1]; ♂, 18 h after withdrawal",0.97 ± 0.04
same,ED50,[2],6.8 mg/kg
same,ED50,[3],107 mg/kg
same,Incidence for jump (%),[4],87.5* %
same,Times for jump (IV ± SD),"[4]; 3 times per day for 7 days, Narcan i.p. 2 mg/kg",68 ± 43
same,Percent in the medicine box (%),[5],62.0 ± 8.0 %
same,ED50,[6],23.3 mg/kg
same,ED50,[7],7.7 mg/kg
same,Percent of the lost weight (IV ± SD),[8]; 30 min after Narcan,−5.1 ± 0.7
same,Percent of the lost weight (IV ± SD),[8]; 60 min after Narcan,−5.9 ± 1.0
same,Percent of the lost weight (IV ± SD),[8]; 120 min after Narcan,−7.0 ± 0.7
same,Abstinence syndrome (IV ± SD),"[8]; 14 days, Narcan i.p. 4 mg/kg",9.2 ± 2.8
same,Greatest decrease of weight after drug withdrawal,[9],10%
same,Increase (%) of weight,[9]; 12 h after withdrawal,−0.5%
same,Weight,[9]; 12 h after withdrawal,284.7 ± 40 g
same,Increase (%) of weight,[9]; 18 h after withdrawal,−3.2%
same,Weight,[9]; 18 h after withdrawal,276.9 ± 39 g
same,Increase (%) of weight,[9]; 24 h after withdrawal,−6.4%
same,Weight,[9]; 24 h after withdrawal,267.9 ± 37 g
same,Increase (%) of weight,[9]; 36 h after withdrawal,−8.2%
same,Weight,[9]; 36 h after withdrawal,262.7 ± 37 g
same,Increase (%) of weight,[9]; 42 h after withdrawal,−9.7%
same,Weight,[9]; 42 h after withdrawal,258.4 ± 35 g
same,Increase (%) of weight,[9]; 48 h after withdrawal,−10.2%
same,Weight,[9]; 48 h after withdrawal,257.0 ± 33 g
same,Increase (%) of weight,[9]; 60 h after withdrawal,−10.3%
same,Weight,[9]; 60 h after withdrawal,256.6 ± 31 g
same,Increase (%) of weight,[9]; 66 h after withdrawal,−10.5%
same,Weight,[9]; 66 h after withdrawal,256.0 ± 34 g
same,Increase (%) of weight,[9]; 72 h after withdrawal,−9.0%
same,Weight,[9]; 72 h after withdrawal,260.4 ± 36 g
same,Increase (%) of weight,[9]; 84 h after withdrawal,−6.1%
same,Weight,[9]; 84 h after withdrawal,268.7 ± 37 g
same,Increase (%) of weight,[9]; 90 h after withdrawal,−7.5%
same,Weight,[9]; 90 h after withdrawal,264.7 ± 37 g
same,Increase (%) of weight,[9]; 96 h after withdrawal,−6.0%
same,Weight,[9]; 96 h after withdrawal,269.0 ± 40 g
same,Increase (%) of weight,[9]; 108 h after withdrawal,−3.0%
same,Weight,[9]; 108 h after withdrawal,277.6 ± 38 g
same,Weight,[9]; 114 h after withdrawal,272.9 ± 38 g
same,Increase (%) of weight,[9]; 120 h after withdrawal,−3.8%
same,Weight,[9]; 120 h after withdrawal,275.4 ± 40 g
same,Increase (%) of weight,[9]; 132 h after withdrawal,−0.5%
same,Weight,[9]; 132 h after withdrawal,284.6 ± 38 g
same,Increase (%) of weight,[9]; 138 h after withdrawal,−2.4%
same,Weight,[9]; 138 h after withdrawal,279.3 ± 38 g
same,Increase (%) of weight,[9]; 144 h after withdrawal,−1.5%
same,Increase (%) of weight,[9]; 156 h after withdrawal,1.7%
same,Weight,[9]; 156 h after withdrawal,291.0 ± 40 g
same,Increase (%) of weight,[9]; 162 h after withdrawal,−0.6%
same,Weight,[9]; 162 h after withdrawal,284.2 ± 40 g
same,Increase (%) of weight,[9]; 168 h after withdrawal,0.1%
same,Weight,[9]; 168 h after withdrawal,286.5 ± 42 g
same,Weight,[9]; before withdraw,286.2 ± 40 g
same,Weight after withdrawal compared with weight one day before withdrawal,"[9]; ♀, 18 h after withdrawal",0.98 ± 0.03
same,Weight after withdrawal compared with weight one day before withdrawal,"[9]; ♀, 42 h after withdrawal",0.92 ± 0.02
same,Weight after withdrawal compared with weight one day before withdrawal,"[9]; ♀, 66 h after withdrawal",0.91 ± 0.02
same,Weight after withdrawal compared with weight one day before withdrawal,"[9]; ♀, 90 h after withdrawal",0.94 ± 0.02
same,Weight after withdrawal compared with weight one day before withdrawal,"[9]; ♀, 138 h after withdrawal",1.00 ± 0.03
same,Weight after withdrawal compared with weight one day before withdrawal,"[9]; ♀, 162 h after withdrawal",1.01 ± 0.03
same,Weight after withdrawal compared with weight one day before withdrawal,"[9]; ♂, 42 h after withdrawal",0.91 ± 0.03
same,Weight after withdrawal compared with weight one day before withdrawal,"[9]; ♂, 66 h after withdrawal",0.90 ± 0.03
same,Weight after withdrawal compared with weight one day before withdrawal,"[9]; ♂, 90 h after withdrawal",0.94 ± 0.03
same,Weight after withdrawal compared with weight one day before withdrawal,"[9]; ♂, 114 h after withdrawal",0.97 ± 0.03
same,Weight after withdrawal compared with weight one day before withdrawal,"[9]; ♂, 138 h after withdrawal",0.99 ± 0.04
same,Weight after withdrawal compared with weight one day before withdrawal,"[9]; ♂, 162 h after withdrawal",1.01 ± 0.04
"CC(=O)Oc1ccccc1C(=O)O [Aspirin, reference compound]",ED50,[2],348 mg/kg
same,ED50,[3],843 mg/kg
same,ED50,[6],> 5000 mg/kg
same,ED50,[10],2310 mg/kg
"O=C(CN1CCN(CCc2ccccc2)CC1)c1ccccc1 [IV-14, N^1-phenethyl-N^4-phenacyl piperazine]",Writhing (K i),"[2]; 20 mg/kg, Table 5 summary",94
same,inhibition in vivo at 20 mg/kg,[2],94%
same,Increase (hot plate) (%),"[3]; 20 mg/kg, Table 5 summary",100%
same,responders at 20 mg/kg,[3]; [14],100%
same,responders at 20 mg/kg,[3]; [15],70%
same,Sedation (writhing model),"[11]; 20 mg/kg, Table 5 summary",92
same,inhibition in vivo at 20 mg/kg,[11],92%
same,Analgesic effect on all three algogenic models,[12],powerful analgesic effects
same,Sedative effect on all three algogenic models,[12],rather significant sedative effect
same,Increase (tail flick) (%),"[13]; 20 mg/kg, Table 5 summary",37.9%
same,change in vivo at 20 mg/kg,[13],37.9%
same,After (s) tail flick time,[13],10.62 s
"CC(=O)Nc1ccc(O)cc1 [Paracetamol, reference compound]",ED50,[2],132 mg/kg
same,ED50,[3],4320 mg/kg
same,ED50,[6],> 5000 mg/kg
"COc1ccc(CN2CCN(CC(=O)c3ccccc3)CC2)cc1 [IV-10, N^1-(4-methoxybenzyl)-N^4-phenacyl piperazine]",inhibition in vivo at 20 mg/kg,[2],100%
same,responders at 20 mg/kg,[3]; [14],90%
same,responders at 20 mg/kg,[3]; [15],70%
same,inhibition in vivo at 20 mg/kg,[11],99%
same,change in vivo at 20 mg/kg,[13],9.4%
same,After (s) tail flick time,[13],8.81 s
